# B1: FLAG-LIPG: purified form of FLAG-tagged LIPG added to PXB cells or plate (protein)
# chain: SPVPFGPEGRLEDKLHKPKATQTEVKPSVRFNLRTSKDPEHEGCYLSVGHSQPLEDCSFNMTAKTFFIIHGWTMSGIFENWLHKLVSALHTREKDANVVVVDWLPLAHQLYTDAVNNTRVVGHSIARMLDWLQEKDDFSLGNVHLIGYSLGAHVAGYAGNFVKGTVGRITGLDPAGPMFEGADIHKRLSPDDADFVDVLHTYTRSFGLSIGIQMPVGHIDIYPNGGDFQPGCGLNDVLGSIAYGTITEVVKCEHERAVHLFVDSLVNQDKPSFAFQCTDSNRFKKGICLSCRKNRCNSIGYNAKKMRNKRNSKMYLKTRAGMPFRVYHYQMKIHVFSYKNMGEIEPTFYVTLYGTNADSQTLPLEIVERIEQNATNTFLVYTEEDLGDLLKIQLTWEGASQSWYNLWKEFRSYLSQPRNPGRELNIRRIRVKSGETQRKLTFCTEDPENTSISPGRELWFRKCRDGWRMKNETSPTVELPDYKDDDDK
# Tests used:
# HBV [1] = test: HBV attachment and uptake assay in HepG2-NTCP-C4-LIPG cells; type: cell-based; conditions: concentration-dependent
# Experimental: (§1) HBV-DNA and cccDNA were quantified by qPCR as described below. Total DNA was extracted from cells using DNeasy Blood & Tissue Kit (Qiagen, Hilden, Germany). HBV-DNA was quantified by qPCR analysis as previously reported (Honda. M. et al., J. Infect. Dis., 213, 1096-1106, 2016). The extracted DNA (50 ng) was treated with 10 U of Plasmid safe DNase I (Epicentre, Madison. WI) at 37° C. for 60 minutes and then treated at 70° C. for 30 minutes for DNase inactivation, cccDNA was quantified by qPCR analysis as previously reported (Honda, M. et al., J. Infect. Dis. 213, 1096-1106, 2016). Quantitative RT-PCR was performed as described below. The GenElute™ Mammalian Total RNA Miniprep Kit (Sigma-Aldrich) was used for extraction of total RNA, and the High Capacity cDNA Reverse Transcription Kit (Applied Biosystems, Carlsbad, CA) was used for cDNA synthesis. The 7500 Real Time PCR System (Applied Biosystems) was used for RT-PCR. Primers 5′-[…]-3′ (SEQ ID NO: 31) and 5′-[…]-3′ (SEQ ID NO: 32) and a probe 5′-FAM-[…]-MGB-3′ (SEQ ID NO: 33) were used for pregenomic RNA. Primer pairs and probes for LIPG, NTCP. 18SrRNA, and ACTB were obtained from the TaqMan assay reagents library.
# When the abundance of LIPG expression was compared among different liver cell lines. […] HepG2-NTCP-C4 cells with overexpression of FLAG-LIPG (HepG2-NTCP-C4-LIPG cells) were established (FIG. 2B), and the attachment and uptake of HBV into cells were assayed in the resulting cells. Heparin, which has been reported to inhibit HBV attachment (Schulze. A. et al., Hepatology 46: 1759-1768, 2007), and heparanase, an endo-β-D-glucuronidase that cleaves the heparan sulfate side chain in heparan sulfate proteoglycans (HSPGs) (Bame, KJ. Glycobiology,11: 91R-98R,2001), were used as control compounds. Cells (HepG2-NTCP-C4-LIPG cells and HepG2-NTCP-C4 control cells) were pretreated with these compounds for 1 hour and then with HBV at 4° C. for 3 hours to allow HBV to attach the cells, washed to wash out HBV, and further incubated at 37° C. for 12 hours to detect uptake of HBV (FIG. 2C). In addition, the cells were further cultured in a conventional culture medium for 3 days after HBV inoculation to detect HBV DNA and cccDNA in the cells (FIG. 2C). HBV attachment was detected by qPCR of HBV-DNA at 3 hours after HBV inoculation at 4° C. in the presence or absence of the compound (heparin or heparanase). HBV attachment (FIG. 2D), uptake (FIG. 2E), and replication of HBV DNA and cccDNA (FIGS. 2F and 2G) were all increased in the HepG2-NTCP-C4-LIPG cells compared to the HepG2-NTCP-C4 control cells.
# Next, the effect of a LIPG inhibitor (GSK-264220A) on HBV attachment and uptake was examined. […] At the same time, this inhibitor had no effect on HepG2-NTCP-C4 control cells.
# HBV [2] = test: HBV attachment and uptake assay in HepG2-NTCP-C4 cells; type: cell-based; conditions: HepG2-NTCP-C4 control cells
# Experimental: as §1, with “18SrRNA, and ACTB were obtained from the TaqMan assay reagents library.” left out
# When the abundance of LIPG expression was compared among different liver cell lines. […] HBV attachment was detected by qPCR of HBV-DNA at 3 hours after HBV inoculation at 4° C. in the presence or absence of the compound (heparin or heparanase). […]
# HBV [3] = test: HBV attachment, uptake and replication in Huh7-LIPG cells; type: cell-based; conditions: Huh7-LIPG cells infected with HBV, 3 days after treatment
# Experimental: as §1
# When the abundance of LIPG expression was compared among different liver cell lines. […] HepG2-NTCP-C4 cells with overexpression of FLAG-LIPG (HepG2-NTCP-C4-LIPG cells) were established (FIG. 2B), and the attachment and uptake of HBV into cells were assayed in the resulting cells. Heparin, which has been reported to inhibit HBV attachment (Schulze. A. et al., Hepatology 46: 1759-1768, 2007), and heparanase, an endo-β-D-glucuronidase that cleaves the heparan sulfate side chain in heparan sulfate proteoglycans (HSPGs) (Bame, KJ. Glycobiology,11: 91R-98R,2001), were used as control compounds. […] HBV attachment was detected by qPCR of HBV-DNA at 3 hours after HBV inoculation at 4° C. in the presence or absence of the compound (heparin or heparanase). […]
# HBV-cccDNA = conditions: Patent Document 1; cited from earlier work
# HBV [4] = conditions: in vitro cell system; cited from earlier work
# [5] = molecular target: T1, binding between preS1 and heparan sulfate enhanced by LIPG (Homo sapiens, UniProt Q9Y5X9); test: Plate assay of binding between preS1 peptide and immobilized heparan sulfate with FLAG-LIPG; conditions: 10, 25, or 50 fmol of FLAG-LIPG per well
# T1 construct: FLAG
# T1 sequence (Q9Y5X9 21-500): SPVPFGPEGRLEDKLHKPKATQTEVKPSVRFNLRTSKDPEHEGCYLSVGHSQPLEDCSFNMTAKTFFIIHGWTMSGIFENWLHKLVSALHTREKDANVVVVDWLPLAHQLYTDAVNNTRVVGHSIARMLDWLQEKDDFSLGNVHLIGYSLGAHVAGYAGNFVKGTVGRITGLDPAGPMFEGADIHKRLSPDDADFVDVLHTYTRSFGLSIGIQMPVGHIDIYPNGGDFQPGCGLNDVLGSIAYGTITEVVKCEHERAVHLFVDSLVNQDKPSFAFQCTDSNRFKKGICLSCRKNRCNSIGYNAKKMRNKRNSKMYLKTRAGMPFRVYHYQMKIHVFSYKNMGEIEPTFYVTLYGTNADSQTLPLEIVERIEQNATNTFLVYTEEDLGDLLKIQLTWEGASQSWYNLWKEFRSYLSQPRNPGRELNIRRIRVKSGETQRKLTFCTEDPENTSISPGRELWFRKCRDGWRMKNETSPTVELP
# Experimental: FIG. 22-2 The effect of LIPG to promote HBV entry into cells and the effect of a LIPG-binding peptide and Netrin-1 to inhibit HBV entry into cells. E: A biotin-labeled form of heparan sulfate was added to a streptavidin-coated 96 well plate and left overnight at 4° C. to allow the heparan sulfate to bind to the plate. This plate was washed with TBS, and 10, 25, or 50 fmol of FLAG-LIPG was then added to each well to allow the reaction to proceed at room temperature for 2 hours. After the plate was washed, 10 or 100 nmol of LIPG-binding peptide LIPH4-NTNBS, LIPH4-23S, LIPH4-NTNBSA, or LIPH4-23SA was added to each well to allow the treatment to proceed at room temperature for 1 hour. Subsequently, the plate was washed, and 0.1 nmol of preS1-TMR was added to each well to allow the treatment to proceed at room temperature for another 1 hour. The plate was washed and then placed in a plate reader to measure the fluorescence of TMR.
# Furthermore, PXB cells treated with Netrin-1 were further treated with FLAG-LIPG, and the uptake of the preS1 peptide was examined, to find that the enhancement of the uptake of the preS1 peptide by FLAG-LIPG was suppressed by Netrin-1 (FIG. 22D). In addition, a biotin-labeled heparan sulfate was immobilized on a streptavidin-coated plate and the preS1 peptide was added thereto to study the binding between the preS1 region of HBV and heparan sulfate present on the cell surface.
# [6] = test system: LIPG-mediated HBV attachment and entry (preS1 peptide) in PXB cells; test: Uptake of TMR-labeled preS1 peptide into PXB cells (confocal microscopy); type: cell-based, human; conditions: PXB cells treated with FLAG-LIPG 3 hours
# Experimental: FIG. 22-1 The effect of LIPG to promote HBV entry into cells and the effect of a LIPG-binding peptide and Netrin-1 to inhibit HBV entry into cells. A: PXB cells were mixed with a purified form of FLAG-LIPG and incubated for 3 hours. The resulting cells were mixed with a preS1 peptide fluorescently labeled with TMR (tetramethylrhodamine) and incubated for 30 minutes, and then observed with a confocal microscope. The fluorescence of the preS1 peptide was detected, and the fluorescence intensity was normalized to the DAPI fluorescence intensity. p<0.05. B: PXB cells were treated with 100 nM LIPG-binding peptide LIPH4-23S or LIPH4-NTNBS for 15 hours, and a purified form of FLAG-LIPG was added thereto, followed by incubation for 3 hours. The resulting cells were mixed with a preS1 peptide fluorescently labeled with TMR and incubated for 30 minutes, and then observed with a confocal microscope. The fluorescence of the preS1 peptide was detected, and the fluorescence intensity was normalized to the DAPI fluorescence intensity. *:p<0.05. C: PXB cells were mixed with Netrin-1 and incubated for 3 hours. […] The fluorescence of the preS1 peptide was detected, and the fluorescence intensity was normalized to the DAPI fluorescence intensity. *:p<0.05. […] The fluorescence of the preS1 peptide was detected, and the fluorescence intensity was normalized to the DAPI fluorescence intensity. […]
molecule,measurement,setting,value
Cc1oc(S(=O)(=O)N2CCCCC2)cc1NC(=O)Nc1ccccc1 [GSK-264220A],HBV attachment (HBV-DNA),HBV [1]; 3 hours after HBV inoculation at 4° C.,inhibited
same,HBV uptake (HBV-DNA),HBV [1]; 12 hours after being recultured at 37° C.,inhibited
same,HBV attachment and uptake,HBV [2],no effect
same,LIPG-mediated increase in HBV replication (cccDNA),HBV [3],reduced HBV replication
same,HBV-cccDNA,HBV-cccDNA,effective in reducing HBV-cccDNA
COc1cc2ncnc(Nc3ccc(F)c(Cl)c3)c2cc1OCCCN1CCOCC1 [gefitinib],HBV infection,HBV [4],reduces HBV infection
B1,binding between preS1 and heparan sulfate (TMR fluorescence),[5],enhanced by FLAG-LIPG in a concentration-dependent manner
same,preS1 peptide present in the cells,[6],increased by FLAG-LIPG in a concentration-dependent manner
